# Data from BindingDB's records for doi:10.1021/jm00108a040 (Eli Lilly, 1991).
# Key:
# [1] = target: Gastrin/cholecystokinin type B receptor (Cavia porcellus); test: Inhibition of [125I]-labeled CCK-8 sulfate binding to Cholecystokinin type B receptor in guinea pig brain membranes
# [2] = target: Gastrin/cholecystokinin type B receptor (Cavia porcellus); test: as above; remark: listed apart in the source
smiles,measurement,setting,value
CCc1cccc(-n2c(CCc3c[nH]c4ccc(Br)cc34)nc3ccccc3c2=O)c1,IC50,[1],330 nM
same,IC50,[2],330 nM
